How the values were obtained:
Type in all cases: biochemical
KDR (VEGFR2) = KDR (VEGFR2) (Homo sapiens, UniProt P35968); experiment: VEGFR2 Kinase-Glo kinase assay; parameters: VEGFR2 (residues V789-V1356); made in house
Experimental: (§1) The FLT3 inhibitors, BPR1J-340 and AC220, were synthesized by our laboratory. The histone deacetylase inhibitor vorinostat (SAHA) was purchased from SelleckBio (Houston, TX, USA). All inhibitors were dissolved in dimethylsulfoxide (DMSO) at a stock concentration of 10 mM. The anti-FLT3 (sc-480, Santa Cruz Biotechnology, Santa Cruz, CA, USA), anti-pFLT3-Tyr591 (#3461, Cell Signaling Technology, Beverly, MA, USA) anti-STAT5 (#9363, Cell Signaling Technology), anti-pSTAT5–Tyr694 (#9351, Cell Signaling Technology), anti-cleaved poly ADP-ribose polymerase (PARP) (#9542, Cell Signaling Technology), anti-Mcl-1 (#4572, Cell Signaling Technology), anti-caspase 3 (#9662, Cell Signaling Technology) and anti-β-actin (Gtx110546, GeneTex, Irvine, CA, USA) antibodies were purchased for Western blotting analysis. The preparation of recombinant proteins, FLT3 (residues Y567-S993), VEGFR1 (residues R781-I1338) and VEGFR2 (residues V789-V1356), for biochemical kinase assay was described previously. The VEGFR3 (residues M800-Y1363) proteins were purchased from Upstate (Billerica, MA, USA).
(§2) The FLT3 and VEGFR1/2 Kinase-Glo kinase assays were performed as reported by our earlier study. […] The kinase inhibition profiling and inhibitory activity of FLT3-D835Y, CSF1R, and TRKA were determined by Invitrogen SelectScreen® kinase profiling service (Carlsbad, California, USA).

ABL1 = target: T1, ABL1 (Homo sapiens, UniProt P00519); experiment: Invitrogen SelectScreen kinase profiling; details: 100 nM
T1 construct: purchased Invitrogen SelectScreen
T1 sequence (P00519 whole entry): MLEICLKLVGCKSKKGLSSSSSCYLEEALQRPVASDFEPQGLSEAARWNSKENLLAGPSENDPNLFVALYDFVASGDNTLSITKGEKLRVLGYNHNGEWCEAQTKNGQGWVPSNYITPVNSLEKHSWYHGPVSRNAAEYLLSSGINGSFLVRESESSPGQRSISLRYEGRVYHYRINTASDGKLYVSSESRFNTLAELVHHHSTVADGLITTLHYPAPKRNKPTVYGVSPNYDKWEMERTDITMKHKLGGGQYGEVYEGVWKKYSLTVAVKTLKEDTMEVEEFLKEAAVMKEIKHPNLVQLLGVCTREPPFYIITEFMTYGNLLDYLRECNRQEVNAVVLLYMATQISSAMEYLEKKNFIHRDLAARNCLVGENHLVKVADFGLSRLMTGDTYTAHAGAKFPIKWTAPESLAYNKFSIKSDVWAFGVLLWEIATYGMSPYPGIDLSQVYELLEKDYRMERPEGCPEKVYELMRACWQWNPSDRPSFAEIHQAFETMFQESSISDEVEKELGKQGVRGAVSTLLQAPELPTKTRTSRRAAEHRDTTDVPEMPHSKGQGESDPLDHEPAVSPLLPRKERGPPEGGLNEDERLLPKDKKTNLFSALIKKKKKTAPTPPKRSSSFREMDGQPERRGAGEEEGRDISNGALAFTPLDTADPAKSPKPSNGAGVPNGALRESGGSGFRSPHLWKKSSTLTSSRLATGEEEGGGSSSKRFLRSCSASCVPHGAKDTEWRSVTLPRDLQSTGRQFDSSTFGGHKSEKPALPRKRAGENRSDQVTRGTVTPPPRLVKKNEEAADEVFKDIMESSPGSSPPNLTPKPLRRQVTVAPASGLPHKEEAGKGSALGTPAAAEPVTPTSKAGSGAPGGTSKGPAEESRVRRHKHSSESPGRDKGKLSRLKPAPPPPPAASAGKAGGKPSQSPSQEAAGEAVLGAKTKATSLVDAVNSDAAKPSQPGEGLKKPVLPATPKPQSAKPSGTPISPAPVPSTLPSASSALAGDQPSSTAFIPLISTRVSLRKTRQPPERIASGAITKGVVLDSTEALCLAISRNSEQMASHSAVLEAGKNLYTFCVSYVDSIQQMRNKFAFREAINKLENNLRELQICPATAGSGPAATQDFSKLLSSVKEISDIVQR
Experimental: (§3) The FLT3 and VEGFR1/2 Kinase-Glo kinase assays were performed as reported by our earlier study. The VEGFR3 activity analysis was conducted using the same protocol described in the VEGFR1/2 assay. The kinase inhibition profiling and inhibitory activity of FLT3-D835Y, CSF1R, and TRKA were determined by Invitrogen SelectScreen® kinase profiling service (Carlsbad, California, USA).
(§4) BPR1J-340, a urea-substituted 3-phenyl-1H-5-pyrazolylamine-based compound, was designed through chemical modification of sulfonamide series of derivatives (BPR1J-097 series) by a structure-activity relationship (SAR) study (Fig. 1), [32]. For kinase inhibition specificity screening, BPR1J-340 was tested against 59 protein kinases covering the major oncogenic kinases of human protein kinome. […] In addition, BPR1J-340 inhibited TRKA, which is associated with the growth and metastasis of breast cancers, with an IC50 value of 8 nM. Given the high similarity of the ATP binding pockets of FLT3 and the Aurora kinases, the inhibitory activity toward Aurora A and Aurora B were measured. […] Taken together, BPRJ-340 is a selective kinase inhibitor with in vitro activity against FLT3, VEGFR2, VEGFR3 and TRKA receptor tyrosine kinases.

BTK = target: T2, BTK (Homo sapiens, UniProt Q06187); experiment: Invitrogen SelectScreen kinase profiling; details: 100 nM
T2 construct: purchased Invitrogen SelectScreen
Experimental: as §3, §4

NEK2 = target: T3, NEK2 (Homo sapiens, UniProt P51955); experiment: Invitrogen SelectScreen kinase profiling; details: 100 nM
T3 construct: purchased Invitrogen SelectScreen
Experimental: as §3, §4

SGKL (SGK3) = target: T4, SGKL (SGK3) (Homo sapiens, UniProt Q96BR1); experiment: Invitrogen SelectScreen kinase profiling; details: 100 nM
T4 construct: purchased Invitrogen SelectScreen
Experimental: as §3, §4

FLT3 = target: T5, FLT3 (Homo sapiens, UniProt P36888); experiment: Invitrogen SelectScreen kinase profiling; details: 100 nM
T5 construct: purchased Invitrogen SelectScreen
Experimental: as §3, §4

IGF1R = target: T6, IGF1R (Homo sapiens, UniProt P08069); experiment: Invitrogen SelectScreen kinase profiling; details: 100 nM
T6 construct: purchased Invitrogen SelectScreen
Experimental: as §3, §4

FRAP1 (mTOR) = target: T7, FRAP1 (mTOR) (Homo sapiens, UniProt P42345); experiment: Invitrogen SelectScreen kinase profiling; details: 100 nM
T7 construct: purchased Invitrogen SelectScreen
Experimental: as §3, §4

CDK2/cyclin A = target: T8, CDK2/cyclin A (Homo sapiens, UniProt P24941); experiment: Invitrogen SelectScreen kinase profiling; details: 100 nM
T8 construct: purchased Invitrogen SelectScreen
Experimental: as §3, §4

PLK1 = target: T9, PLK1 (Homo sapiens, UniProt P53350); experiment: Invitrogen SelectScreen kinase profiling; details: 100 nM
T9 construct: purchased Invitrogen SelectScreen
T9 sequence (P53350 whole entry): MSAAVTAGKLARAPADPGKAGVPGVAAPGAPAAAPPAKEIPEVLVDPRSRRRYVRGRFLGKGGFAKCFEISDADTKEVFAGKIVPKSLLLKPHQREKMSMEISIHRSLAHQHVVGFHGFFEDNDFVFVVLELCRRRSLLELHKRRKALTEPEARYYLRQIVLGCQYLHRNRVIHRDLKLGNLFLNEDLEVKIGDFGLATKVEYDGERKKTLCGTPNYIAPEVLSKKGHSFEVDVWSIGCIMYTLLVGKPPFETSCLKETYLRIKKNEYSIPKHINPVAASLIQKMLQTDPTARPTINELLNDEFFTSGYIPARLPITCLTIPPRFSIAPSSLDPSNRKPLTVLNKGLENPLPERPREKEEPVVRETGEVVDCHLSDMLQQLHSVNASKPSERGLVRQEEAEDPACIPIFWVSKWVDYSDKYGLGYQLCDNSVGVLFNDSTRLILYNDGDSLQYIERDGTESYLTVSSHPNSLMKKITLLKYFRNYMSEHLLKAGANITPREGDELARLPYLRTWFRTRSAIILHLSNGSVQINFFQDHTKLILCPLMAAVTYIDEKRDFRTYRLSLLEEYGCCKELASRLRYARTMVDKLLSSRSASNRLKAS
Experimental: as §3, §4

CSK = target: T10, CSK (Homo sapiens, UniProt P41240); experiment: Invitrogen SelectScreen kinase profiling; details: 100 nM
T10 construct: purchased Invitrogen SelectScreen
Experimental: as §3, §4

ERBB2 (HER2) = target: T11, ERBB2 (HER2) (Homo sapiens, UniProt P04626); experiment: Invitrogen SelectScreen kinase profiling; details: 100 nM
T11 construct: purchased Invitrogen SelectScreen
T11 sequence (P04626 23-1255): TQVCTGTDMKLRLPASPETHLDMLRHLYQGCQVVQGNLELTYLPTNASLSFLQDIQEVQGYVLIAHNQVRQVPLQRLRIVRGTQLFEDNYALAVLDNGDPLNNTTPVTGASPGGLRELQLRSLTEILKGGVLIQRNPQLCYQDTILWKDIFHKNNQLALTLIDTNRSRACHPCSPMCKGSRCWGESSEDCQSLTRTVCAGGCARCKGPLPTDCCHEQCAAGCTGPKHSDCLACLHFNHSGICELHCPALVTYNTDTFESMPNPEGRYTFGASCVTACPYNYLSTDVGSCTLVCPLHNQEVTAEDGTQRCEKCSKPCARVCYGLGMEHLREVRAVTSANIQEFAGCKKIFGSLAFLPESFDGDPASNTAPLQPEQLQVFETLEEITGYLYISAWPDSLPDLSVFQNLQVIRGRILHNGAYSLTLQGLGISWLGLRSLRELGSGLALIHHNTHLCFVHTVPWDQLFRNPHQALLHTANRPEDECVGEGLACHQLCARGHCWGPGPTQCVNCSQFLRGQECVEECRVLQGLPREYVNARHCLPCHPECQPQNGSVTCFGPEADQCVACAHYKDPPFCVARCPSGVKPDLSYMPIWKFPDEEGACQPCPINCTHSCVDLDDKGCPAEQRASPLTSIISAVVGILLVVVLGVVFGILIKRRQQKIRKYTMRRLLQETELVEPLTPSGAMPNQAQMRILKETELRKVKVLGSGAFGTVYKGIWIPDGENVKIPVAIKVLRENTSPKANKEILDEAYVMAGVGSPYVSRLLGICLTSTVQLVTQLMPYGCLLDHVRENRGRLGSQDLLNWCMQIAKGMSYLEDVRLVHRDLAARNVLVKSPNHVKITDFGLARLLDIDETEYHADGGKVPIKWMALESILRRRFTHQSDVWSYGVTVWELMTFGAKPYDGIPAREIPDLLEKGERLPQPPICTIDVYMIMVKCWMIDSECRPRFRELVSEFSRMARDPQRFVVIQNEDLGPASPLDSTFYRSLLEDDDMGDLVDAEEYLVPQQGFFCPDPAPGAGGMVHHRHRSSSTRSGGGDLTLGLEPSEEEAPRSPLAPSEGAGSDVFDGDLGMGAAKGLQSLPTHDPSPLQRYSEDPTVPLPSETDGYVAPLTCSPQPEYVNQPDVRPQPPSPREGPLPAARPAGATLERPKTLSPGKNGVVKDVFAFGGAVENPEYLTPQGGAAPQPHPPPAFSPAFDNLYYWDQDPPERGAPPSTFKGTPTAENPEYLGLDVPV
Experimental: as §3, §4

IKBKE (IKK epsilon) = target: T12, IKBKE (IKK epsilon) (Homo sapiens, UniProt Q14164); experiment: Invitrogen SelectScreen kinase profiling; details: 100 nM
T12 construct: purchased Invitrogen SelectScreen
Experimental: as §3, §4

MST1R (RON) = target: T13, MST1R (RON) (Homo sapiens, UniProt Q04912); experiment: Invitrogen SelectScreen kinase profiling; details: 100 nM
T13 construct: purchased Invitrogen SelectScreen
Experimental: as §3, §4

MAP2K1 (MEK1) = target: T14, MAP2K1 (MEK1) (Homo sapiens, UniProt Q02750); experiment: Invitrogen SelectScreen kinase profiling; details: 100 nM
T14 construct: purchased Invitrogen SelectScreen
Experimental: as §3, §4

MET (cMet) = target: T15, MET (cMet) (Homo sapiens, UniProt P08581); experiment: Invitrogen SelectScreen kinase profiling; details: 100 nM
T15 construct: purchased Invitrogen SelectScreen
Experimental: as §3, §4

JAK2 = target: T16, JAK2 (Homo sapiens, UniProt O60674); experiment: Invitrogen SelectScreen kinase profiling; details: 100 nM
T16 construct: purchased Invitrogen SelectScreen
Experimental: as §3, §4

KIT = target: T17, KIT (Homo sapiens, UniProt P10721); experiment: Invitrogen SelectScreen kinase profiling; details: 100 nM
T17 construct: purchased Invitrogen SelectScreen
Experimental: as §3, §4

RPS6KB1 (p70S6K) = target: T18, RPS6KB1 (p70S6K) (Homo sapiens, UniProt P23443); experiment: Invitrogen SelectScreen kinase profiling; details: 100 nM
T18 construct: purchased Invitrogen SelectScreen
Experimental: as §3, §4

JAK1 = target: T19, JAK1 (Homo sapiens, UniProt P23458); experiment: Invitrogen SelectScreen kinase profiling; details: 100 nM
T19 construct: purchased Invitrogen SelectScreen
Experimental: as §3, §4

TEK (Tie2) = target: T20, TEK (Tie2) (Homo sapiens, UniProt Q02763); experiment: Invitrogen SelectScreen kinase profiling; details: 100 nM
T20 construct: purchased Invitrogen SelectScreen
Experimental: as §3, §4

LYN A = target: T21, LYN A (Homo sapiens, UniProt P07948); experiment: Invitrogen SelectScreen kinase profiling; details: 100 nM
T21 construct: purchased Invitrogen SelectScreen
Experimental: as §3, §4

FGFR1 = target: T22, FGFR1 (Homo sapiens, UniProt P11362); experiment: Invitrogen SelectScreen kinase profiling; details: 100 nM
T22 construct: purchased Invitrogen SelectScreen
T22 sequence (P11362 22-822): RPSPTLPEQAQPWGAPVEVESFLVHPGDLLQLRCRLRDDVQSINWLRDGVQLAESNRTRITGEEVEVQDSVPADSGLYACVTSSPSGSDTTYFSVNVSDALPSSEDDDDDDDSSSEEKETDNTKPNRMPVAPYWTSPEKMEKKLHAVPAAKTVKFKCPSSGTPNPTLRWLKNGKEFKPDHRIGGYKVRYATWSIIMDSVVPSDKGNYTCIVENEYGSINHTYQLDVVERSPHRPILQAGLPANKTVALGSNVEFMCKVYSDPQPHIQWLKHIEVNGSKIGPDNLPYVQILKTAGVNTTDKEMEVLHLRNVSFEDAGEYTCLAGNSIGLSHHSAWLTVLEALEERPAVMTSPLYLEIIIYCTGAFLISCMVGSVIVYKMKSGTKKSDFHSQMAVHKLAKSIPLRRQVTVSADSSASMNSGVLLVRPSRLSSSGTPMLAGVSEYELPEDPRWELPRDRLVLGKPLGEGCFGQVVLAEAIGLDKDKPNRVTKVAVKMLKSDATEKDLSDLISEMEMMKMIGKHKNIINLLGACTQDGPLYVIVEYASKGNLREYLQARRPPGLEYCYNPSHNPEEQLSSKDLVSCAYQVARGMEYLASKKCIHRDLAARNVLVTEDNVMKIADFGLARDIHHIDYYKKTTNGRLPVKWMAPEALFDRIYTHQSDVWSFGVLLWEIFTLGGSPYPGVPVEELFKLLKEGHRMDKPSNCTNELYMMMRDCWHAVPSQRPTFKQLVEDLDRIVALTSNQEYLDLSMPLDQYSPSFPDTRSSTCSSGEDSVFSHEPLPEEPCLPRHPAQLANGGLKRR
Experimental: as §3, §4

CLK2 = target: T23, CLK2 (Homo sapiens, UniProt P49760); experiment: Invitrogen SelectScreen kinase profiling; details: 100 nM
T23 construct: purchased Invitrogen SelectScreen
Experimental: as §3, §4

MAPK14 (p38 alpha) = target: T24, MAPK14 (p38 alpha) (Homo sapiens, UniProt Q16539); experiment: Invitrogen SelectScreen kinase profiling; details: 100 nM
T24 construct: purchased Invitrogen SelectScreen
Experimental: as §3, §4

FLT4 (VEGFR3) = FLT4 (VEGFR3) (Homo sapiens, UniProt P35916); experiment: VEGFR3 Kinase-Glo kinase assay; parameters: VEGFR3 (residues M800-Y1363); purchased Upstate (Billerica, MA, USA)
FLT4 (VEGFR3), sequence (P35916 800-1363): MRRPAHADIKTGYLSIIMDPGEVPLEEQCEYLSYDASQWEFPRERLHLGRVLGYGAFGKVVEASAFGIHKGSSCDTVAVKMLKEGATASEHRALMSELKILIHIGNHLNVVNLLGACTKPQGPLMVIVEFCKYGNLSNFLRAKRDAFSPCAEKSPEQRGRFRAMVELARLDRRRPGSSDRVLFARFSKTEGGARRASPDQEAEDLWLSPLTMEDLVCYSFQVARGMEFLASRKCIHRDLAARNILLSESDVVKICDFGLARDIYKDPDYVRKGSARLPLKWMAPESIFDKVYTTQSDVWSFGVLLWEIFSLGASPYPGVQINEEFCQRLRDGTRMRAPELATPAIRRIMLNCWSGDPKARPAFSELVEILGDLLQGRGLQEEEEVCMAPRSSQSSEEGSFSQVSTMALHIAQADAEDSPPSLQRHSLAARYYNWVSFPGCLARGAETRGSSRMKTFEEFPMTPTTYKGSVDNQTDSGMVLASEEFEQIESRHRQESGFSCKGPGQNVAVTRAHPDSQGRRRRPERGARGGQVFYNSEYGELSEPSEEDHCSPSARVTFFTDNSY
Experimental: as §1, §2

[1] = target: T25, FLT3 (wild-type, residues Y567-S993) (Homo sapiens, UniProt P36888); experiment: FLT3 Kinase-Glo kinase assay
T25 construct: FLT3 (residues Y567-S993); made in house
Experimental: All inhibitors were dissolved in dimethylsulfoxide (DMSO) at a stock concentration of 10 mM. […] The preparation of recombinant proteins, FLT3 (residues Y567-S993), VEGFR1 (residues R781-I1338) and VEGFR2 (residues V789-V1356), for biochemical kinase assay was described previously [29].
The FLT3 and VEGFR1/2 Kinase-Glo kinase assays were performed as reported by our earlier study [30].

KDR (VEGFR2), sequence (P35968 789-1356): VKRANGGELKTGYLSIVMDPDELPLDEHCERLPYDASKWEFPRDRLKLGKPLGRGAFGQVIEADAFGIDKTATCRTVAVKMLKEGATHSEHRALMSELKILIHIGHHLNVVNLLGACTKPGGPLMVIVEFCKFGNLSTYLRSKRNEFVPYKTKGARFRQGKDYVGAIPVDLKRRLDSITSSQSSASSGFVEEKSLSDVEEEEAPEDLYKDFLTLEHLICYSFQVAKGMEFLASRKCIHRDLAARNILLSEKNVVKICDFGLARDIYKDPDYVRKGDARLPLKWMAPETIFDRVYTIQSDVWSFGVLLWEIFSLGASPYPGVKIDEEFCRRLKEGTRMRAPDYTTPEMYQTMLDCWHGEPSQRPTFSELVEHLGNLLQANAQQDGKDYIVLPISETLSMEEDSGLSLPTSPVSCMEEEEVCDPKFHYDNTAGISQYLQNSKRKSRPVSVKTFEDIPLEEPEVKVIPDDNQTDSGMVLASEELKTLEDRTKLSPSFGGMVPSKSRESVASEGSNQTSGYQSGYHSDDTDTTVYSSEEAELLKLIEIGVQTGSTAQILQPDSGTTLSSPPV

## CCc1cc(NC(=O)NCc2ccc(-c3cc(NC(=O)c4ccc(CN5CCN(C)CC5)cc4)[nH]n3)cc2)no1 [BPR1J-340, N1-(3-4-[([(5-ethyl-3-isoxazolyl)amino]carbonylamino)methyl]phenyl-1H-5-pyrazolyl)-4-[(4-methylpiperazino)methyl]benzamide]
KDR (VEGFR2)
  IC50: 0.028 ± 0.009 µM
ABL1
  inhibition at 0.1 µM: 7%
BTK
  inhibition at 0.1 µM: 7%
NEK2
  inhibition at 0.1 µM: 2%
SGKL (SGK3)
  inhibition at 0.1 µM: 12%
FLT3
  inhibition at 0.1 µM: 97%
IGF1R
  inhibition at 0.1 µM: 12%
FRAP1 (mTOR)
  inhibition at 0.1 µM: -8%
CDK2/cyclin A
  inhibition at 0.1 µM: 5%
PLK1
  inhibition at 0.1 µM: 4%
CSK
  inhibition at 0.1 µM: 3%
ERBB2 (HER2)
  inhibition at 0.1 µM: 11%
IKBKE (IKK epsilon)
  inhibition at 0.1 µM: 21%
MST1R (RON)
  inhibition at 0.1 µM: 6%
MAP2K1 (MEK1)
  inhibition at 0.1 µM: 0%
MET (cMet)
  inhibition at 0.1 µM: 17%
JAK2
  inhibition at 0.1 µM: 9%
KIT
  inhibition at 0.1 µM: 66%
RPS6KB1 (p70S6K)
  inhibition at 0.1 µM: -18%
JAK1
  inhibition at 0.1 µM: -3%
TEK (Tie2)
  inhibition at 0.1 µM: 42%
LYN A
  inhibition at 0.1 µM: 17%
FGFR1
  inhibition at 0.1 µM: 17%
CLK2
  inhibition at 0.1 µM: -7%
MAPK14 (p38 alpha)
  inhibition at 0.1 µM: 24%
FLT4 (VEGFR3)
  IC50: 0.029 ± 0.007 µM
[1]
  IC50: 0.029 ± 0.005 µM

Source: paper PMC3885398, “Evaluation of the Antitumor Effects of BPR1J-340, a Potent and Selective FLT3 Inhibitor, Alone or in Combination with an HDAC Inhibitor, Vorinostat, in AML Cancer” (PLoS ONE, 2014)
